# Measured values published in US11458114B2, “Methods and compositions for enhancing synthesis secretion and transport of collagen to increase wound strength” (NORTH CELL PHARMACEUTICALS, INC., priority 2020, dated 2022).
# “Also recorded” adds a separate entry of the source.
# Legend:
# [1] = system: tumors; experiment: SRF given 1-2 hours prior to 3-bromopyruvate: tumor size; type: in vivo; conditions: 3 bromopyruvate by itself
# Method: To date most patients with cancer that are treated with radiation or cancer drugs show a partial reduction of tumor sizes, but in most cases the cancer remains and life expectances increases for a short period of time. This is the case for tumors. Five patients with various cancers were treated with 3-Bromopyruvate, an alkylating agent and a well-known inhibitor of energy metabolism. Results to date have been mixed. The problem with most cancer drugs is not only their toxicity to noncancerous tissue, but is their inability to completely eradicate the cancer. Cancer drugs cause hypoxia in normal noncancerous cells and they destroy tissue and their ability to heal. In mice studies conducted by others, they investigated the chemo preventive activity of 3-bromopyruvate. For the topical treatment the mice were treated with 10-30 mg/5 ml daily and treated for 8 weeks. […] 3-Bromopyruvate also dissociated hexokinase II from mitochondria, reduced hexokinase activity, and blocked energy metabolism in cancer cells, finally triggered cancer cell death and induced apoptosis through caspase-3, and PARP in human lung cancer cell line. The problem with 3-bromopyruvate was its toxicity to normal cells. The formula needed to protect noncancerous cells from 3-bromopyruvate and to enhance its effect on tumors, was the addition of SRF 1-2 hours prior to the administration of the 10 mg of 3-bromopyruvate. […]
# [2] = system: HSV-1 or 2; experiment: Viral plaques in virally infected cells, HSV; type: cell-based
# Excerpt: Results: The primary end points were the levels of IL-8 and IL-1 after treatment with an immunostimulators, and SRF. […] IL-8 activates neutrophils to increase their numbers at the infected site. […] IL-1 increases inflammation and decreases healing times. […] The same experiment was done with virally infected cells and the SRF in combination with immunostimulators decreased viral plaque formed by HSV-1 or 2 by 70% and HPV-18 decreased by 82%. Viral plaques are a direct measure of viral numbers in infected cells.
# [3] = system: virally infected cells; experiment: Viral plaque formation in virally infected cells; type: cell-based
# Excerpt: A commercial cold sore formula was purchased and the enumerated keto acids were placed into it to treat cold sores, both as a combination and singly as well. The commercial formulation by itself was utilized as a control. […] However, when SRF was placed in the cold sore formulation both with and without anti-oxidants and fatty acids, they heal the cold sore at a much faster rate 10-40% when tested on a cold sore sufferer The same experiment was done with virally infected cells and the combination of pyruvate and α-Ketoisovalerate with SRF decreased viral plaque formation by 50%. Viral plaques are a direct measure of viral numbers in infected cells. […] Other antivirals were evaluated with SRF to determine if the addition of SRF could reduce the skin irritation produced by Foscarnet sodium, Ribavirin, imiquimod, vidarabine, ganciclovir sodium, zidovudine, phenol, amantadine hydrochloride, and interferon. alpha.-n3. Even though some of these anti virals are not effective against a cold sore, they were evaluated on human cold sores to determine if SRF could reduce the irritation and enhance healing at the infection site. All formula with SRF healed cold sore two days faster than non-treatments and when this formula was combined with antiviral, like acyclovir or docosonal, the viral lesions healed 1.5 days faster than the commercial antiviral agent alone (Abreva or acyclovir). […]
# [4] = system: wounds; experiment: Various drugs administered on wounds with or without sodium pyruvate or SRF: erythema rating and days to total re-epithelization
# Method: (§1) All previous studies using pyruvate to treat wounds or be used as an antioxidant used only the sodium salt form of pyruvic acid. The drug products that were tested in previous studies used 1-3% sodium pyruvate and other sodium salts of alpha keto acids by weight 1-3% concentrations in the lotions and triple antibiotic formulations. […]
# [5] = system: HPV 16 or 18; experiment: Viral plaque reduction, patients with vaginal HPV treated with SRF cream containing imiquimod; conditions: human, in vivo
# Method: Percentage of Viral Plaque Reduction in Virally Infected Cells in Humans
# A total of 15 patients with vaginal HPV 16 or 18 were treated with the SRF cream that also contained imiquimod. […] SRF reduces viral plaques in virally infected cells by 22-34%. Unexpectedly, the combination of SRF and Imiquimod produced the best results, by reducing the viral plaques over 92%, eliminating the virus from most of the infected cells. This tissue culture data along with data from humans, confirms that this combination worked.
# [6] = system: skin laser wounds in patients; experiment: Salts of pyruvate and SRF on skin laser wounds in patients: healing and irritation
# Method: as §1
# [7] = Amount of salts delivered in the pyruvate formulations compared to amounts in human blood; conditions: amount delivered in the pyruvate formulation
# [8] = Rating 1-10, 1 most erythema, 10 no erythema
# [9] = days to total re-epithelization
compound,measurement,setting,value
O=C(O)C(=O)CBr [3-bromopyruvate],reduction of tumor sizes,[1],60%
Nc1nc2c(ncn2COCCO)c(=O)[nH]1 [Acyclovir],decreased viral HSV plaques,[2],60%
same,decrease of viral plaque formation,[3],60%
same,Drugs in commercial formula with SRF erythema,[4]; [8],7
same,Drugs in commercial formula with sodium pyruvate only erythema,[4]; [8],5
same,Drugs in commercial formula erythema,"[4]; Rating 1-10, 1 most erythema, 10 no erythema, drug alone",4
same,Drug in commercial formula with SRF. Days to healing,[4]; [9],10 days
same,Drug in commercial formula with sodium pyruvate only. Days to healing,[4]; [9],13 days
same,Drug in commercial formula Days to healing,"[4]; days to total re-epithelization, drug alone",18 days
CC(C)Cn1cnc2c(N)nc3ccccc3c21 [Imiquimod],reduction of viral plaques in virally infected cells,[5],25-40%
zinc pyruvate,wound healing results,"[6]; same concentration of pyruvate for each salt, compared with sodium pyruvate formulations or base",slight increases in healing; also recorded: did not produce increases in healing over the base
same,irritation or toxicity,[6]; skin,irritating and possibly toxic
same,delivered salt relative to blood levels,[7],840 × blood levels
